IC50 data for 10 molecules are collected here from ChEMBL document CHEMBL1777731, “Design and synthesis of potent HIV-1 protease inhibitors incorporating hydroxyprolinamides as novel P2 ligands” (Bioorg Med Chem Lett, 2011).

The structures appear in SMILES notation. Bounds are passed on as bounds.

This test relates to HIV-1 protease (Human immunodeficiency virus 1). As to the kind of experiment: Inhibition of wild type HIV1 protease expressed in Escherichia coli by fluorometric assay.

Usually IC50 stands for the concentration that gives 50% inhibition. Low values mean inhibition by little substance, high ones a need for much substance. As to `COc1ccccc1NC(=O)[C@@H]1C[C@@H](OC(=O)N[C@@H](Cc2ccccc2)[C@H](O)CN(CC(C)C)S(=O)(=O)c2ccc(N)cc2)CN1`, the IC50 was 13 µM.

Molecule `CC(C)(C)NC(=O)[C@@H]1CN(Cc2cccnc2)CCN1C[C@@H](O)C[C@@H](Cc1ccccc1)C(=O)N[C@H]1c2ccccc2C[C@H]1O` gave a half-inhibitory concentration (IC50) of less than 0.01 µM.

In turn, `Cc1ccc(NC(=O)[C@@H]2C[C@@H](OC(=O)N[C@@H](Cc3ccccc3)[C@H](O)CN(CC(C)C)S(=O)(=O)c3ccc(N)cc3)CN2)cc1` had a half-maximal inhibitory concentration (IC50) of 0.139 µM.

As to `COc1cc(NC(=O)[C@@H]2C[C@@H](OC(=O)N[C@@H](Cc3ccccc3)[C@H](O)CN(CC(C)C)S(=O)(=O)c3ccc(N)cc3)CN2)cc(OC)c1OC`, half-maximal inhibition (IC50) was put at 10.1 µM.

Molecule `COc1ccc(NC(=O)[C@@H]2C[C@@H](OC(=O)N[C@@H](Cc3ccccc3)[C@H](O)CN(CC(C)C)S(=O)(=O)c3ccc(N)cc3)CN2)cc1` displayed an IC50 of 0.0154 µM.

`CC(C)CN(C[C@@H](O)[C@H](Cc1ccccc1)NC(=O)O[C@H]1CN[C@H](C(=O)Nc2ccccc2)C1)S(=O)(=O)c1ccc(N)cc1` yielded an IC50 of 14.8 µM.

On to `CC(C)CN(C[C@@H](O)[C@H](Cc1ccccc1)NC(=O)O[C@H]1CN[C@H](C(N)=O)C1)S(=O)(=O)c1ccc(N)cc1`, for which the IC50 was 0.0166 µM.

In turn, `COc1ccc(OC)c(NC(=O)[C@@H]2C[C@@H](OC(=O)N[C@@H](Cc3ccccc3)[C@H](O)CN(CC(C)C)S(=O)(=O)c3ccc(N)cc3)CN2)c1` registered an IC50 of 11.8 µM.

In turn, `COc1cccc(NC(=O)[C@@H]2C[C@@H](OC(=O)N[C@@H](Cc3ccccc3)[C@H](O)CN(CC(C)C)S(=O)(=O)c3ccc(N)cc3)CN2)c1` came in with an IC50 of 15.2 µM.

In the case of `CC(C)CN(C[C@@H](O)[C@H](Cc1ccccc1)NC(=O)O[C@H]1CN[C@H](C(=O)NC(C)(C)C)C1)S(=O)(=O)c1ccc(N)cc1`, inhibition was half-maximal at 10.1 µM (IC50).
